# In US11666583B2, “Methods of treating cortical dementia associated wandering” (WOOLSEY PHARMACEUTICALS, INC., priority 2020, dated 2023):
# Counter-ions that a name gives are not always drawn.
# Tests used:
# triple transgenic mice = conditions: 30 mg/kg and 100 mg/kg in water, 10 or 12 months of age; cited from earlier work
# streptozotocin rats = conditions: 5 and 10 mg/kg/day intraperitoneally; cited from earlier work
# APP/PS1 transgenic mice = conditions: 5 and 10 mg/kg/day intraperitoneally; cited from earlier work
# [1] = test system: patients with wandering due to VaD; conditions: cited from earlier work
# [2] = test system: triple transgenic mouse model (APP Swedish, MAPT P301L, and PSEN1 M146V); conditions: 10 mg/kg/day intraperitoneally; cited from earlier work
# [3] = test system: patients with Alzheimer's Dementia (AD) and cortical vascular dementia (VaD); assay: Clinical trial of oral fasudil on frequency of wandering (Example 1); format: in vivo, human
# From the text: Twenty patients, 10 with AD and 10 with VaD (confirmed by […]) who are characterized wanderers, are enrolled into the study and observed for 2 weeks to confirm wandering behavior. […] The double-blind phase is followed by another treatment period of 6 weeks with the opposite treatment assignment (placebo or test drug taken with food).
# • a. Walks distinctly more than average as others of same age and ability AND/OR • b. Elopement behavior≥3× per week in the opinion of the investigator Criteria for Entering First Double-Blind Treatment Period: Wanders: • a. Walks less than half the mean distance measured in observation period AND/OR • b. Elopement behavior<1× per week in the opinion of the investigator AND/OR • c. Wandering has improved in the opinion of the Investigator. 4. For entering observation period and for entering open label treatment period: • a. MMSE between 10 and 25.
# Wandering is measured in term of time in motion and distance traveled (measures of persistent wandering), attempted and successful boundary transgressions (measures of elopement) and patterns like pacing a lapping (indicative of persistent wandering and/or agitation or anxiety) using an electronic tracking device. A typical tracking device would use a combination of accelerometry with positioning, using technology like RFID or Bluetooth in an indoor environment and GPS outdoors. Other wayfinding, orientation and memory-associated wandering incidents are observed and recorded manually.
# The Mini Mental State Exam (MMSE), the Woolsey Wandering Questionnaire and the Revised Algase Wandering Scale are administered at baseline and at the end of each treatment period. Any change in the use of antipsychotics or anxiolytics that could affect movement during the study is strongly discouraged.
# [4] = target: p38 mitogen-activated protein kinase (Homo sapiens, UniProt Q16539); conditions: cited from earlier work
# Sequence of p38 mitogen-activated protein kinase (Q16539 whole entry): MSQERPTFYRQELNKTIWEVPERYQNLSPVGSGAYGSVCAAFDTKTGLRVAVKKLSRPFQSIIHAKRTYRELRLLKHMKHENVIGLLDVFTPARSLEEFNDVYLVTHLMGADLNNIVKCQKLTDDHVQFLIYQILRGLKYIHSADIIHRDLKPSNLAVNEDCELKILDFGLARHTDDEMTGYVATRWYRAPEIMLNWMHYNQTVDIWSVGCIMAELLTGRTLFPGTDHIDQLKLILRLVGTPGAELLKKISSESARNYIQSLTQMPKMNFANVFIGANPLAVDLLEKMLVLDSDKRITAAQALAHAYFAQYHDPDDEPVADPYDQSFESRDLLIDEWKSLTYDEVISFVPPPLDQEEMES
# [5] = 1-hydroxy (M3) metabolite; cited from earlier work
compound,measurement,setting,value
"O=S(=O)(c1cccc2cnccc12)N1CCCNCC1 [fasudil, Hexahydro-1-(5-isoquinolinesulfonyl)-1H-1,4-diazepine monohydrochloride hemihydrate]",spatial memory,triple transgenic mice,did not observe improvements
same,latency distance and quadrant time in the Morris water maze,streptozotocin rats,improved
same,latency distance and quadrant time in the Morris water maze,APP/PS1 transgenic mice,improved
same,wandering symptoms,"[1]; patient with Binswanger-type cerebral infarction, within weeks of beginning treatment",disappeared and remained absent for the duration of treatment
same,wayfinding symptoms,[1]; patient with sequelae of cerebral bleeding and multiple lacunar infarctions (lacunar dementia),disappeared quickly and remained absent for the duration of treatment
same,ß-amyloid plaques in vivo,[2],reduce ß-amyloid plaques
same,measures of caregiver burden,"[3]; on drug, 90 mg/day",significant effect
same,"reduction in wandering, at least one item of the RAWS and/or the WWQ","[3]; oral 90 mg/day (30 mg TID), 6 weeks, AD and cortical VaD wanderers",significant reduction
same,mean increase in MMSE score,"[3]; persistent wanderers, 90 mg/day",greater than 3 points
same,reduction of activity levels,"[3]; persistent wanderers, on drug as compared to placebo, 90 mg/day",about 50%
same,wayfinding errors and other problematic behaviors,"[3]; sporadic wanderers, while on drug",significant reduction
O=c1ncn2nc(Sc3ccc(F)cc3F)ccc2c1-c1c(Cl)cccc1Cl [Neflamapimod],primary endpoint of improving episodic memory,[4]; Phase 2,failed
same,tau in the cerebrospinal fluid,[4]; Phase 2,reducing tau
same,Aβ deposition,[4]; humans,no effect
O=S(=O)(c1cccc2c(O)nccc12)N1CCCNCC1 [M3],half-life,[5],about 8 hours
